Reference: patent US11497751B2, “Modulators of Rho-associated protein kinase” (Redx Pharma PLC, priority 2018, dated 2022)

Target: T1, N-terminal 6His-tagged ROCK2 catalytic domain 11-552 (Homo sapiens, UniProt O75116)
T1 construct: N-terminal 6His-tagged ROCK2 catalytic domain 11-552; 6His (N); purchased Dundee University, UK; host or cells: baculovirus expression system
Assay: ROCK2 binding activity: ROCK2 inhibition, ADP-Glo Kinase Assay
Type: biochemical
Details: 1.25 nM ROCK2, 100 μM long S6 peptide, 20 μM ATP; 1 hour pre-incubation; read-out: ADP-Glo kinase activity assay ROCK2 Category
In short: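 1.25 nM baculovirus-expressed ROCK2 pre-incubated 1 h with compound (1% DMSO), then 100 μM long S6 peptide and 20 μM ATP added for 1 h; 50 mM HEPES pH 7.5, 10 mM Mg acetate, 1 mM DTT. ADP-Glo luminescence; IC50 from four-parameter logistic fit.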

T1 sequence (O75116 11-552): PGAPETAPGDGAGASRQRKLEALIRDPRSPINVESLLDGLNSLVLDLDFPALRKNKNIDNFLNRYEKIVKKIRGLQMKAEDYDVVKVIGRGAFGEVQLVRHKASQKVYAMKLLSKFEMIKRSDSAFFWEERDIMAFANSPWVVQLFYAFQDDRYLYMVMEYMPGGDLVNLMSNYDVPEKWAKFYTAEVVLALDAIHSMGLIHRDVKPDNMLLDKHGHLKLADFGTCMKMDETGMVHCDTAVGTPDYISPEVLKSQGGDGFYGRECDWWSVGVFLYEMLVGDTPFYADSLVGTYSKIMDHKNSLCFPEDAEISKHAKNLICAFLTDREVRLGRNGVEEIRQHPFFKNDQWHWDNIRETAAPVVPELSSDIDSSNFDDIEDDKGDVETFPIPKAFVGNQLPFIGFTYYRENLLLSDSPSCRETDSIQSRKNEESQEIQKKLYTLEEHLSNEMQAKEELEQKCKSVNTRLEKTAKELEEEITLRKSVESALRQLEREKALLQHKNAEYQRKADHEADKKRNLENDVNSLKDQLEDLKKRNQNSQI

Structure (SMILES) | IC50
Cn1nc(-c2cnn(CCN3CCOCC3)c2)nc1Nc1ccc2[nH]ncc2c1Cl [Example 117] | 0.3 to 3 µM
COc1cc(-c2nc(Nc3ccc4[nH]ncc4c3Cl)n(C)n2)ccc1C(=O)NC(C)(C)C [Example 175] | < 0.3 µM
CC(C)NC(=O)COc1ccc(-c2nc(Nc3ccc4[nH]ncc4c3)n(C)n2)cc1 [Example 470] | < 0.3 µM
CCNC(=O)c1ccc(-c2nc(Nc3ccc4[nH]ncc4c3Cl)n(C)n2)c2cccnc12 [Example 373] | 0.3 to 3 µM
COC(=O)[C@@H](NC(=O)c1ccc(-c2nc(Nc3ccc4[nH]ncc4c3C3CC3)n(C)n2)cc1)C(C)C [Example 301] | < 0.3 µM
Cc1cc(-c2nc(Nc3ccc4[nH]ncc4c3Cl)n(CC(C)C)n2)ccc1C(=O)NCC(F)(F)F [Example 435] | < 0.3 µM
Cn1nc(-c2ccc(C(=O)N3CCOCC3)cc2)nc1Nc1ccc2[nH]ncc2c1Cl [Example 61] | 0.3 to 3 µM
CC(C)NC(=O)COc1cc(F)c(-c2nc(Nc3ccc4[nH]ncc4c3)n(C)n2)cc1F [Example 416] | < 0.3 µM
O=C(COc1ccc(-c2nnc(Nc3ccc4[nH]ncc4c3)[nH]2)cc1)N1CCOCC1 [Example 154, 2-[4-[5-(1H-Indazol-5-ylamino)-4H-1,2,4-triazol-3-yl]phenoxy]-1-morpholinoethanone] | 0.3 to 3 µM
COc1cc(-c2nc(Nc3ccc4[nH]ncc4c3Cl)n(C)n2)ccc1OCC(=O)NC(C)C(F)(F)F (stereo not drawn) [Example 210] | < 0.3 µM
CCNC(=O)c1ccc(-c2nc(Nc3ccc4[nH]ncc4c3)n(C)n2)cc1F [Example 326] | < 0.3 µM
COc1cc(-c2nc(Nc3ccc4[nH]ncc4c3Cl)n(C)n2)ccc1NCC(=O)NC(C)C [Example 87] | < 0.3 µM
CS(=O)(=O)NC(=O)COc1ccc(-c2nnc(Nc3ccc4[nH]ncc4c3)[nH]2)cc1 [Example 37] | 0.3 to 3 µM
Cn1nc(-c2ccc(C(=O)NC(C)(C)C)c(Cl)c2)nc1Nc1ccc2[nH]ncc2c1Cl [Example 256] | < 0.3 µM
Cn1nc(-c2ccc(C(=O)Nc3ccccc3)cc2)nc1Nc1ccc2[nH]ncc2c1Cl [Example 261] | < 0.3 µM
CC(C)NCCOc1ccc(-c2n[nH]c(Nc3ccc4[nH]ncc4c3)n2)cc1 [Example 230, N-[5-[4-[2-(isopropylamino)ethoxy]phenyl]-4H-1,2,4-triazol-3-yl]-1H-indazol-5-amine] | 0.3 to 3 µM
COc1cc(-c2nc(Nc3ccc4[nH]ncc4c3Cl)n(C)n2)ccc1C(=O)NC1(CO)CC1 [Example 198] | < 0.3 µM
COc1cc(-c2nc(Nc3ccc4[nH]ncc4c3Cl)n(C)n2)ccc1OCC(=O)NC(C)c1cccnc1 (stereo not drawn) [Example 216] | < 0.3 µM
CC(C)NC(=O)COc1ccc(-c2nc(Nc3ccc4[nH]ncc4c3)n(C)n2)c(C(F)(F)F)c1 [Example 402] | < 0.3 µM
COc1cc(-c2nc(Nc3ccc4[nH]ncc4c3Cl)n(C)n2)ccc1OCC(=O)NC1(CO)CC1 [Example 211] | < 0.3 µM
COc1cc(-c2nc(Nc3ccc4[nH]ncc4c3Cl)n(C)n2)ccc1OCC(=O)NC(C)C [Example 68] | < 0.3 µM
COc1cc(-c2nc(Nc3ccc4[nH]ncc4c3C)n(C(C)C)n2)ccc1C(=O)NCC(F)(F)F [Example 449] | < 0.3 µM
COCc1ccc(-c2nc(Nc3ccc4[nH]ncc4c3Cl)n(C)n2)cc1 [Example 63] | < 0.3 µM
c1ccc(NCCOc2ccc(-c3nnc(Nc4ccc5[nH]ncc5c4)[nH]3)cc2)nc1 [Example 222] | < 0.3 µM

Structure (SMILES) | IC50
COc1cc(-c2nc(Nc3ccc4[nH]ncc4c3Cl)n(CC(C)C)n2)ccc1OCC(=O)NC(C)C [Example 436] | < 0.3 µM
Cc1cc(OCC(=O)NC(C)C)ccc1-c1nc(Nc2ccc3[nH]ncc3c2Cl)n(C)n1 [Example 354] | < 0.3 µM
NCCCOc1ccc(-c2nnc(Nc3ccc4[nH]ncc4c3)[nH]2)cc1 [Example 22] | 0.3 to 3 µM
COc1cc(-c2nc(Nc3ccc4[nH]ncc4c3C3CC3)n(C)n2)ccc1C(=O)NC1CN(C)C1 [Example 275] | 0.3 to 3 µM
CCNC(=O)c1ccc(-c2nc(Nc3ccc4[nH]ncc4c3)n(C)n2)c(F)c1 [Example 406] | < 0.3 µM
COc1ccc(-c2nnc(Nc3ccc4[nH]nc(C)c4c3)[nH]2)cc1 [Example 5] | 3 to 10 µM
CC(C)NC(=O)COc1c(F)cc(-c2nnc(Nc3ccc4[nH]ncc4c3)[nH]2)cc1F [Example 36] | 0.3 to 3 µM
CCc1c(Nc2nc(-c3ccc(C(=O)NC4CN(C)C4)c(OC)c3)nn2C)ccc2[nH]ncc12 [Example 315] | 0.3 to 3 µM
Cc1cc(-c2nc(Nc3ccc4[nH]ncc4c3C)n(CC(C)C)n2)ccc1C(=O)NCC(F)(F)F [Example 451] | < 0.3 µM
COc1cc(-c2nc(Nc3ccc4[nH]ncc4c3Cl)n(C)n2)ccc1C(=O)NC1(C)CC1 [Example 264] | < 0.3 µM
COCCn1nc(-c2ccc(OCC(=O)NC(C)C)c(OC)c2)nc1Nc1ccc2[nH]ncc2c1 [Example 447] | < 0.3 µM
CCNC(=O)c1ccc(-c2nc(Nc3ccc4[nH]ncc4c3C3CC3)n(C)n2)cc1OC [Example 272] | < 0.3 µM
CC(C)NC(=O)COc1ccc(-c2nc(Nc3ccc4[nH]ncc4c3)n(-c3ccccc3F)n2)cc1 [Example 146] | < 0.3 µM
COc1cc(-c2nc(Nc3ccc4[nH]ncc4c3C)n(C)n2)ccc1C(=O)NCC(F)(F)F [Example 178] | < 0.3 µM
CC(C)NC(=O)COc1ccc(-c2nc(Nc3ccc4[nH]ncc4c3Cl)n(C)n2)c(F)c1F [Example 362] | < 0.3 µM
CC(C)NC(=O)C(C)(C)Oc1ccc(-c2nnc(Nc3ccc4[nH]ncc4c3)[nH]2)cc1 [Example 19] | 0.3 to 3 µM
Cn1nc(-c2ccc3c(c2)CCN(C(=O)CNCC(F)(F)F)C3)nc1Nc1ccc2[nH]ncc2c1Cl [Example 239] | < 0.3 µM
Cn1nc(-c2cccc(OC(F)(F)F)c2)nc1Nc1ccc2[nH]ncc2c1Cl [Example 136] | 0.3 to 3 µM
CC(C)NC(=O)N1CCc2cc(-c3nc(Nc4ccc5[nH]ncc5c4Cl)n(C)n3)ccc2C1 [Example 54] | < 0.3 µM
COc1cc(-c2nc(Nc3ccc4[nH]ncc4c3)n(C)n2)ccc1C(=O)NC(C)C [Example 169] | < 0.3 µM
CC(C)NC(=O)c1cccc(-c2nc(Nc3ccc4[nH]ncc4c3Cl)n(C)n2)c1 [Example 270] | < 0.3 µM
COc1ccc(F)c(-c2nc(Nc3ccc4[nH]ncc4c3Cl)n(C)n2)c1 [Example 114] | < 0.3 µM
CC(C)NC(=O)Cn1cc(-c2nnc(Nc3ccc4[nH]ncc4c3)[nH]2)ccc1=O [Example 16] | 0.3 to 3 µM
COc1cc(-c2nc(Nc3ccc4[nH]ncc4c3C3CC3)n(C)n2)ccc1C(=O)NC(C)C [Example 273] | < 0.3 µM

Structure (SMILES) | IC50
COc1cc(-c2nc(Nc3ccc4[nH]ncc4c3F)n(C)n2)ccc1C(=O)NC(C)C [Example 183] | < 0.3 µM
Cn1nc(-c2ccc(C(=O)NCC(C)(C)O)cc2)nc1Nc1ccc2[nH]ncc2c1C1CC1 [Example 286] | < 0.3 µM
CC(C)NC(=O)COc1ccc(-c2nc(Nc3ccc4[nH]ncc4c3Cl)n(C)n2)c(Cl)c1 [Example 352] | < 0.3 µM
Cn1nc(-c2ccc(C(=O)NCC(N)=O)cc2)nc1Nc1ccc2[nH]ncc2c1C1CC1 [Example 306] | 0.3 to 3 µM
COc1cc(-c2nc(Nc3ccc4[nH]ncc4c3Cl)n(C(C)C)n2)ccc1OCC(=O)NC(C)C [Example 145] | < 0.3 µM
Cn1nc(-c2ccc(C(=O)Nc3ccccn3)cc2)nc1Nc1ccc2[nH]ncc2c1Cl [Example 266] | < 0.3 µM
COC(=O)c1ccc(-c2nc(Nc3ccc4[nH]ncc4c3Cl)n(C)n2)cc1OC [Example 118] | < 0.3 µM
CC(C)NC(=O)COc1ccc(-c2nnc(Nc3ccc4[nH]ncc4c3Cl)[nH]2)cc1 [Example 30] | < 0.3 µM
COc1cc(-c2nc(Nc3ccc4[nH]ncc4c3C3CC3)n(C)n2)ccc1C(=O)NC1CC1 [Example 383] | < 0.3 µM
COc1cc(-c2nc(Nc3ccc4[nH]ncc4c3Cl)n(C)n2)ccc1OCC(=O)NC(C)CO (stereo not drawn) [Example 208] | < 0.3 µM
COc1cc(-c2nc(Nc3ccc4[nH]ncc4c3Cl)n(C)n2)ccc1C(=O)N1CCCC1 [Example 197] | 0.3 to 3 µM
CCNC(=O)c1ccc(-c2nc(Nc3ccc4[nH]ncc4c3Cl)n(C)n2)c(C)c1 [Example 262] | < 0.3 µM
COc1ccc(-c2nc(Nc3ccc4[nH]ncc4c3Cl)n(C)n2)cc1 [Example 99] | < 0.3 µM
COc1cc(OC)cc(-c2nnc(Nc3ccc4[nH]ncc4c3)[nH]2)c1 [Example 3] | 0.3 to 3 µM
CC(C)NC(=O)COc1ccc(-c2nc(Nc3ccc4[nH]ncc4c3Cl)n(C)n2)cc1N1CCOCC1 [Example 52] | 0.3 to 3 µM
Cn1nc(-c2ccc(C(=O)NC3CC3)cc2)nc1Nc1ccc2[nH]ncc2c1Cl [Example 177] | < 0.3 µM
COc1cc(-c2nc(Nc3ccc4[nH]ncc4c3)n(C)n2)ccc1OCC(=O)NC(C)C(F)(F)F (stereo not drawn) [Example 235, 2-[4-[5-(1H-indazol-5-ylamino)-1-methyl-1,2,4-triazol-3-yl]-2-methoxy-phenoxy]-N-(2,2,2-trifluoro-1-methyl-ethyl)acetamide] | < 0.3 µM
COc1ccc(-c2nc(Nc3ccc4[nH]ncc4c3Cl)n(C)n2)cc1OC [Example 77] | < 0.3 µM
CCNC(=O)c1ccc(-c2nc(Nc3ccc4[nH]ncc4c3)n(C)n2)cc1C [Example 394] | 0.3 to 3 µM
CCNC(=O)c1cc(F)c(-c2nc(Nc3ccc4[nH]ncc4c3Cl)n(C)n2)cc1F [Example 360] | < 0.3 µM
Cc1n[nH]c2ccc(Nc3nc(-c4ccc(C(=O)NCC(F)(F)F)cc4)nn3C)cc12 [Example 427] | < 0.3 µM
CCNC(=O)c1ccc(-c2nc(Nc3ccc4[nH]ncc4c3Cl)n(C)n2)cc1C [Example 346] | < 0.3 µM
Cn1nc(-c2ccc(N3CCOCC3)cc2)nc1Nc1ccc2[nH]ncc2c1Cl [Example 102] | < 0.3 µM
COC(=O)[C@H](CC(C)C)NC(=O)c1ccc(-c2nc(Nc3ccc4[nH]ncc4c3C3CC3)n(C)n2)cc1 [Example 302] | < 0.3 µM
